# Source: US20150125407A1, “Vesicular Formulations, Uses and Methods” (Sequessome Technology Holdings Ltd, priority 2012, published 2015)
# Tested on: acne vulgaris
# Test: Use example 1: topical roaccutane alone or layered with Rossoseq gel in teenage acne vulgaris
# Settings: topically applied roaccutane alone; person
structure (smiles),measurement,value
CC1=C(/C=C/C(C)=C/C=C/C(C)=C\C(=O)O)C(C)(C)CCC1 [roaccutane],effect on acne vulgaris,did not have a significant effect
